The experiment addresses T1, BTK (Homo sapiens, UniProt Q06187).
T1 construct: endogenous in cells; host or cells: TMD-8 cells
Description: BTK degradation in TMD-8 cells, HTRF assay after 6 h treatment. Format: cell-based. The conditions noted are these: IC50 (DC50) of BTK degradation. The essentials: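 Remaining BTK was quantified by HTRF in lysates of TMD-8 cells after 6 h exposure to an 8-point, 6-fold compound series (500× stocks in DMSO starting at 1 mM; 0.2% DMSO). Lysis 30 min, antibodies overnight at room temperature, ratio read at 665/620 nm; DC50 fitted with a four-parameter logistic equation.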

From patent US20230322761A1, “DEGRADATION OF BRUTON'S TYROSINE KINASE (BTK) BY CONJUGATION OF BTK INHIBITORS WITH E3 LIGASE LIGAND AND METHODS OF USE” (BEIGENE, LTD., priority 2020, published 2023) come the findings set out here.

T1 sequence (Q06187 whole entry): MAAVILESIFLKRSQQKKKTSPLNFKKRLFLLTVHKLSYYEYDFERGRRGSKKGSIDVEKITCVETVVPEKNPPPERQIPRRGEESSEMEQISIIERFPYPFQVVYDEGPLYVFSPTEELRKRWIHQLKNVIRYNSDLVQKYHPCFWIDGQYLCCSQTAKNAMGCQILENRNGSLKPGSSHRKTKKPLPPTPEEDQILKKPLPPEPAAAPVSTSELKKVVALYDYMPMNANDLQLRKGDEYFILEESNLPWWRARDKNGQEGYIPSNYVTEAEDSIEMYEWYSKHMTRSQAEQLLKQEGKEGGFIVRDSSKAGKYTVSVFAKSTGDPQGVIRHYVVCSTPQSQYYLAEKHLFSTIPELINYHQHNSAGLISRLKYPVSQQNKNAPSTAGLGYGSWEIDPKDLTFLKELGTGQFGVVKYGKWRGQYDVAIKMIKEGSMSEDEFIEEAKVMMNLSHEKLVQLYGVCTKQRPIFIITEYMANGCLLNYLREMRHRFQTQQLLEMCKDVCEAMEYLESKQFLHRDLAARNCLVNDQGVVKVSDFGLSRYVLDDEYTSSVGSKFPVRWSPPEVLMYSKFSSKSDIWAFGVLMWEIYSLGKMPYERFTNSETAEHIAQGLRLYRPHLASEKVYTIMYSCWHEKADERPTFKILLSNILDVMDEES

The DC50 is the concentration giving 50% degradation. `Cc1cc(-c2n[nH]c3ncc(-c4ccc(N5CCN(CCc6ccc([C@H]7CCC(=O)NC7=O)cn6)CC5)cc4)cc23)ccc1[C@@H](C)NC(=O)c1noc(C(C)(C)C)n1` [Example 140, 5-(tert-butyl)-N—((R)-1-(4-(5-(4-(4-(2-(5-((R)-2,6-dioxopiperidin-3-yl)pyridin-2-yl)ethyl)piperazin-1-yl)phenyl)-1H-pyrazolo[3,4-b]pyridin-3-yl)-2-methylphenyl)ethyl)-1,2,4-oxadiazole-3-carboxamide] returned a DC50 of 1.11 nM. The result for `Cc1cc(-c2n[nH]c3ncc(-c4ccc(N5CCN(CC6CCN(c7ccc(N8CCC(=O)NC8=O)cc7)CC6)CC5)cc4)cc23)ccc1[C@@H](C)NC(=O)c1noc(C2(CO)CC2)n1` [Example 184, (R)—N-(1-(4-(5-(4-(4-((1-(4-(2,4-dioxotetrahydropyrimidin-1(2H)-yl)phenyl)piperidin-4-yl)methyl)piperazin-1-yl)phenyl)-1H-pyrazolo[3,4-b]pyridin-3-yl)-2-methylphenyl)ethyl)-5-(1-(hydroxymethyl)cyclopropyl)-1,2,4-oxadiazole-3-carboxamide] reads 14 nM; that for `Cc1cc(-c2n[nH]c3ncc(-c4ccc(CCN5CCC(c6ccc([C@H]7CCC(=O)NC7=O)cc6)CC5)cc4)cc23)ccc1CNC(=O)c1nc(C(C)(C)C)no1` [Example 89, (R)-3-(tert-butyl)-N-(4-(5-(4-(2-(4-(4-(2,6-dioxopiperidin-3-yl)phenyl)piperidin-1-yl)ethyl)phenyl)-1H-pyrazolo[3,4-b]pyridin-3-yl)-2-methylbenzyl)-1,2,4-oxadiazole-5-carboxamide], 0.635 nM. `Cc1cc(-c2n[nH]c3ncc(-c4ccc(N5CCN(CCc6ccc(NC7CCC(=O)NC7=O)cc6)CC5)cc4)cc23)ccc1[C@@H](C)NC(=O)c1noc(C(C)(C)C)n1` (stereo partly drawn) [Example 131, 5-(tert-butyl)-N-((1R)-1-(4-(5-(4-(4-(4-((2,6-dioxopiperidin-3-yl)amino)phenethyl)piperazin-1-yl)phenyl)-1H-pyrazolo[3,4-b]pyridin-3-yl)-2-methylphenyl)ethyl)-1,2,4-oxadiazole-3-carboxamide] showed a DC50 of 5.9 nM. Next, `Cc1cc(-c2n[nH]c3ncc(-c4ccc(C5CCN(CC6CCN(c7ccc(N8CCC(=O)NC8=O)cc7)CC6)CC5)nc4)cc23)ccc1[C@@H](C)NC(=O)c1noc(C(C)(C)C)n1` [Example 71, (R)-5-(tert-butyl)-N-(1-(4-(5-(6-(1-((1-(4-(2,4-dioxotetrahydropyrimidin-1(2H)-yl)phenyl)piperidin-4-yl)methyl)piperidin-4-yl)pyridin-3-yl)-1H-pyrazolo[3,4-b]pyridin-3-yl)-2-methylphenyl)ethyl)-1,2,4-oxadiazole-3-carboxamide]: 4.03 nM; `Cc1cc(-c2n[nH]c3ncc(-c4ccc(N5CCN(CC6CCN(c7ccc(N8CCC(=O)NC8=O)c(C)c7)CC6)CC5)cc4)cc23)ccc1[C@@H](C)NC(=O)c1noc(C2(CO)CC2)n1` [Example 185, (R)—N-(1-(4-(5-(4-(4-((1-(4-(2,4-dioxotetrahydropyrimidin-1(2H)-yl)-3-methylphenyl)piperidin-4-yl)methyl)piperazin-1-yl)phenyl)-1H-pyrazolo[3,4-b]pyridin-3-yl)-2-methylphenyl)ethyl)-5-(1-(hydroxymethyl)cyclopropyl)-1,2,4-oxadiazole-3-carboxamide]: 16.2 nM; `Cc1cc(-c2n[nH]c3ncc(-c4ccc(N5CCN(CCc6ccc([C@H]7CCC(=O)NC7=O)cc6)CC5)cc4)cc23)ccc1[C@@H](C)NC(=O)c1noc(C(C)(C)C)n1` [Example 111, 5-(tert-butyl)-N—((R)-1-(4-(5-(4-(4-(4-((R)-2,6-dioxopiperidin-3-yl)phenethyl)piperazin-1-yl)phenyl)-1H-pyrazolo[3,4-b]pyridin-3-yl)-2-methylphenyl)ethyl)-1,2,4-oxadiazole-3-carboxamide]: 4.93 nM.
